# From patent US20250114511A1, “BLOOD PERFUSION DEVICE TO REDUCE SECONDARY INFECTION IN HOSPITAL” (SEOUL NATIONAL UNIVERSITY R&DB FOUNDATION, priority 2022, published 2025)
# “Also recorded” adds a separate entry of the source. Read-outs that look alike come from different tables or passages of the source.
# Key:
# [1] = system: PMNs isolated from healthy volunteers; assay: Chemotaxis to 100 nM fMLF of healthy volunteer PMNs exposed to septic shock patient plasma; assay type: cell-based, human; conditions: 10 μM CsH
# Protocol: The effect of bead-anti-mtFP mixture treatment on PMN chemotaxis rescue was analyzed. PMS was isolated from blood samples obtained from healthy volunteers and exposed to untreated plasma from septic shock patients for 30 minutes in a 10-rpm rotator at 37° C. […] In order to estimate the capacity of non-FPR1-mediated PMN chemotaxis, separate PMNs exposed to bead anti-mtFP mixture-treated plasma were pretreated with 10 μM CsH 15 minutes prior to the chemotaxis experiment.
# The inventors of the present disclosure investigated the chemotactic restoration effect of the anti-mtFP cocktail on PMNs by exposing PMNs from healthy volunteers to the plasma of septic shock patients treated with the anti-mtFP cocktail and then comparing PMN chemotaxis with plasma that had not received the anti-mtFP cocktail treatment.
# [2] = system: PMNs isolated from septic shock patients with secondary infection; assay: Chemotaxis to 100 nM fMLF of PMNs from septic shock patients with secondary infection exposed to their own plasma; assay type: cell-based, human; conditions: 50 pg/mL recombinant LTB4 added to bead-anti-mtFP mixture treated plasma, 90 minutes
# [3] = system: human polymorphonuclear cells (PMN); conditions: previous studies of the inventors; cited from earlier work
# [4] = molecular target: T1, formyl peptide receptor 1 (FPR1) (Homo sapiens, UniProt P21462); assay: PMN intracellular calcium mobilization (ER calcium depletion and calcium influx, fura2-AM)
# T1 sequence (P21462 1-350): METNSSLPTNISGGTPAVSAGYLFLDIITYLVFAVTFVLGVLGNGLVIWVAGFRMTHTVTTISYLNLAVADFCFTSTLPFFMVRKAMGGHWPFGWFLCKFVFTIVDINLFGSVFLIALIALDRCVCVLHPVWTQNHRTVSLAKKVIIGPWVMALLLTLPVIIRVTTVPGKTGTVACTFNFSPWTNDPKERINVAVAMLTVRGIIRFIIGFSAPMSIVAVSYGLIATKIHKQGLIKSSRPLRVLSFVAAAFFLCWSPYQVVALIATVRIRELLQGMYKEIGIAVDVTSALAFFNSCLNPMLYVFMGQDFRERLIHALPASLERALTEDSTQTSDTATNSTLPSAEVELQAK
# Protocol: Calcium mobilization within PMN cells was measured according to the following method. The separated PMN pellet was resuspended in pH 7.4 hydroxyethyl piperazine ethane sulfonic acid (HEPES) buffer solution. This HEPES buffer solution includes 20 mM HEPES, 140 mM NaCl, 5 mM potassium chloride (KCl), 1 mM magnesium chloride (MgCl2), 1 mM calcium chloride (CaCl2)), 10 mM glucose and 0.1% bovine serum albumin (BSA, A2058 Sigma-Aldrich). PMNs were loaded with fura2-AM (F1221, Thermo Fisher, Waltham, MA) for 45 minutes at 37° C.
# Fluorescence was measured at 505 nm with 340/380 nm dual-wavelength excitation at 37° C. by using a spectrofluorometer (FluoroMax Plus-C, Horiba, Ltd., Kyoto, Japan). For the quantitative measurement of endoplasmic reticulum (ER) calcium depletion, PMNs were centrifuged at 200 g for 10 minutes at 4° C. PMN pellets were then resuspended in a calcium-free HEPES buffer solution including 0.3 mM ethylene glycol-bis(2-aminoethylether)-N,N,N′,N′-tetraacetic acid (EGTA, E3889, Sigma-Aldrich, St. Louis, MO), and stimulated with ND6 and fMLF or with ND6 alone. 0.1% dimethyl sulfoxide (DMSO) was added to the medium without ND6 or fMLF. After endoplasmic reticulum calcium was depleted, 1.8 mM CaCl2) was added to induce cytoplasmic calcium influx. Endoplasmic reticulum calcium depletion and calcium influx were assessed by measuring the 340 nm/380 nm ratio and quantified as AUC over 150 seconds (AUC150) and AUC over 100 seconds (AUC100), respectively. […]
# In order to investigate which steps of intracellular calcium mobilization stimulated by FPR1 agonists directly correlate with PMN chemotaxis, the inventors of the present disclosure quantitatively measured the amounts of endoplasmic reticulum (ER) calcium depletion and subsequent calcium influx into the cytoplasm in isolated human PMNs obtained from healthy volunteers. […] The area under the curve (AUC) of ER calcium depletion over 150 seconds was calculated to quantify the amount of ER calcium depletion stimulated by ND6 (AUC150 primary) and fMLF (AUC150 secondary), respectively. […]
# [5] = system: human polymorphonuclear cells (PMN)
# Protocol: PMN chemotaxis was assessed by using multiScreen 96-well plates consisting of a 3-μm pore membrane (MAMIC3S10, Merck Millipore, Darmstadt, Germany). After preplanned treatment with ND6 or patient plasma, isolated human PMNs were centrifuged at 200 g for 10 minutes at 4° C. Afterwards, the PMN pellet was resuspended in Dulbecco's modified Eagle medium (DMEM, 11885-084, Thermo Fisher) containing 10% fetal bovine serum (FBS, F2442, Sigma-Aldrich). Before use, FBS was inactivated by heating at 56° C. for 1 hour. PMNs were placed in the upper chamber of the plate (0.1×10^6 PMNs at 75 μL per well), and medium containing 100 nM fMLF was placed in the lower chamber (150 μL per well). In medium without ND6 or fMLF, 0.1% DMSO was added.
# Plates were incubated for 60 minutes in an incubator at 37° C. with 5% carbon dioxide (CO2). […] Afterwards, the contents were transferred to a 96-well plate, and fluorescence was measured at an excitation/emission wavelength of 480/520 nm with a cut-off of 515 nm. The number of migrated PMNs was calculated by using a standard curve derived from known PMN numbers. […]
# After exposure to 100 nM ND6 for 30 minutes, PMNs were centrifuged at 220 g for 10 minutes at 4° C., and the supernatant was discarded. […] PMN chemotaxis at 30 and 90 minutes was measured as the number of PMNs migrated during 60-minute incubation between 30 and 90 minutes and 90 and 150 minutes, respectively.
# FPR1 = FPR1 expression on PMN membranes by flow cytometry; assay type: cell-based, human; conditions: 100 nM ND6 for 30 minutes
# Protocol: FPR1 expression on PMN membranes and the amount of CaMK2 in the homogenized PMN pellet were also detected by flow cytometry. In order to detect FPR1 on PMN membranes, PMNs (1.0×10^6 in 200 μL) were incubated with FITC-conjugated anti-human FPR1 antibody (2 μL, FAB3744F, R&D Systems, Minneapolis, MN) for 30 minutes at room temperature in the dark. FITC-conjugated mouse IgG2a, κ isotype control antibody (400210, BioLegend, San Diego, CA) was used as a negative control. After washing twice, fluorescence was measured. APC-conjugated anti-CaMK2 antibody (2 μL, ab225178, Abcam, Cambridge, UK) was used to detect the amount of CaMK2 in 200 μL of homogenized PMN pellet obtained by homogenization of 1.0×10^6/l mL PMN for 30 seconds at 4° C. and centrifugation at 20,000 g for 10 minutes. FPR1 expression in PMN membranes and the amount of CaMK2 in homogenized PMN pellets were quantified as mean fluorescence intensity (MFI) by using FlowJo version 10.0 (FlowJo, LLC, Ashland, OR). At least three independent experiments were performed.
molecule,measurement,setting,value
"C/C=C/C[C@@H](C)[C@@H](O)[C@H]1C(=O)N[C@@H](CC)C(=O)N(C)CC(=O)N(C)[C@@H](CC(C)C)C(=O)N[C@@H](C(C)C)C(=O)N(C)[C@@H](CC(C)C)C(=O)N[C@@H](C)C(=O)N[C@H](C)C(=O)N(C)[C@@H](CC(C)C)C(=O)N(C)[C@@H](CC(C)C)C(=O)N(C)[C@H](C(C)C)C(=O)N1C [CsH, cyclosporine H]",chemotaxis of CsH-treated PMNs versus CsH-free PMNs exposed to untreated plasma,[1],not significantly different
"CCCCC/C=C\C[C@@H](O)/C=C/C=C/C=C\[C@@H](O)CCCC(=O)O [recombinant LTB4, leukotriene B4]",restoration of PMN chemotaxis compared to PMN exposed to untreated plasma,[2],effectively restored PMN chemotaxis
same,restoration of PMN chemotaxis compared to PMN exposed to untreated plasma,[2]; listed as recombinant leukotriene B4 (LTB4),significantly restored PMN chemotaxis
N-formyl-methionine-leucine-phenylalanine [fMLF],most potent concentration to induce FPR1-mediated PMN chemotaxis,[3],100 nM
N-formyl-methionine-methionine-tyrosine-alanine-leucine-phenylalanine [ND6],ER calcium depletion and calcium influx in response to 100 nM fMLF,[4]; 100 nM ND6 for 30 minutes or more,inhibited; also recorded: did not completely inhibit
same,inhibition of fMLF-stimulated secondary ER calcium depletion and subsequent calcium influx,"[4]; 100 nM, 10 nM, 5 nM ND6, then 100 nM fMLF",dose-dependently inhibited
same,PMN chemotaxis in response to 100 nM fMLF,[5]; 100 nM ND6 for 30 minutes,inhibited
same,PMN chemotaxis in response to 100 nM fMLF,"[5]; ND6-treated PMNs, 100, 10, 5 nM",dose-dependently inhibited
same,FPR1 expression in PMN membranes (MFI),FPR1,reduced FPR1 expression
